Compound | melting point
Cc1cnc2c(Br)cnn2c1-c1cccnc1 | 166 to 168 °C
CCCc1c(OCCCSc2nc3ccccc3[nH]2)ccc(C(C)=O)c1O | 149 to 150 °C
Cc1nnc(C(C)C)n1C1CC2CCC(C1)N2CCC(NC(=O)C1CCC(F)(F)CC1)c1ccc(N)cc1 (stereo not drawn) | 103 to 105 °C
CNC(=O)Oc1ccc(C2CCC(=O)N2CCN2CCOCC2)cc1 (stereo not drawn) | 119 to 120 °C
COc1ccc(C2=NN(Cc3ccccc3N)C(=O)SC2)cc1OC | 105 °C
NC(=O)c1cc2c(C=Cc3ccccc3)cncc2s1 | 257 to 258 °C
CC(=O)Nc1ccc(NC(=O)c2ccc3c(c2)NC(=O)C3(C)C)cc1 | 294 to 295 °C
CCc1cn2ccccc2c1S(=O)(=O)c1cc(C)c(OS(=O)(=O)c2ccc(C)cc2)c(C)c1 | 161 °C
C=CCc1cccc(C[C@H](NC(=O)OC(C)(C)C)[C@H](O)CCl)c1 | 123 to 126 °C
CC(C)(C)c1ccc(Nc2ncc(-c3ccnc(Cl)n3)c3ccccc23)cc1 | 257 to 258 °C
CCOC(=O)c1cc(N=Cc2ccccc2)ccc1O | 63 to 65 °C
CCCCc1cn(CCC)c(=O)n1Cc1ccc(-c2ccccc2-c2nnn[nH]2)nc1 | 164 to 165 °C
O=c1[nH]cccc1CO | 203 to 205 °C
CC(C)N(C(=O)n1nc(Oc2ccc(C(F)(F)F)cc2[N+](=O)[O-])cc1C(F)(F)F)C(C)C | 118 to 120 °C
C[Si](C)(C)NC(=O)C(Cl)(Cl)Cl | 75 to 85 °C
CCCNc1ncnc2c1ncn2Cc1c(F)cccc1Cl | 166 to 167 °C
N#Cc1ccc(CC(=O)Cc2ccc(C#N)cc2)cc1 | 149 to 150 °C
Cn1cccc1C(=O)c1sc(Nc2ccc3[nH]cnc3c2)nc1N | 284 to 285 °C
O=C(CCc1ccsc1)CC(=O)N1CCOCC1 | 81 to 84 °C
CCCN(CCc1ccccc1)CCc1cccc2[nH]c(=O)[nH]c12 | 176 to 177 °C
CCCCOC(=O)COc1ccc(C(=O)Nc2ccccc2Sc2cc(OC)ccc2-c2nnn[nH]2)cc1 | 169 to 171 °C
CCOC(=O)c1cn(-c2cc(NC(=O)OCc3ccccc3)c(F)cc2F)c2cc(F)c(F)c(C)c2c1=O | 202 to 204 °C
CC(C)C(c1cncnc1C=NO)N(C)C(=O)Cc1ccccc1 (stereo not drawn) | 171 to 172 °C
COc1cc(Cc2cnc(N)nc2N)cc(OC)c1CN | 176 to 178 °C
CN1CCC(=C2c3cc(Cl)ccc3CCn3ncnc32)CC1 | 176 °C
S=C1CC(c2ccccc2)=Nc2ccccc2N1 | 228 to 230 °C

Compound | melting point
COCCCNS(=O)(=O)Cc1cccc(Nc2cc(-c3ccccc3OC)ncn2)c1 | 149 to 151 °C
COC(=O)c1cc(NN=C(c2ccccc2)c2ccccc2)c(C#N)s1 | 178 to 180 °C
CC(C)COC(=O)N1CCN(c2c(C(=O)N3CCN(C)CC3)c3ccccc3n2-c2ccccc2)CC1 | 132 to 133 °C
Cc1cc(C)n(-c2nc(Nc3cccc4cccnc34)c3ccccc3n2)n1 | 184 to 185 °C
COC(COc1ccc(Oc2ccccc2)cc1)OC | 76.7 °C
CCCCC1CCC(C2=C(Cl)C(=O)c3ccccc3C2=O)CC1 (stereo not drawn) | 107 to 110 °C
CCCc1nc2c(N)nc(C)c(C)c2n1CCCCNC(C)=O | 200 to 201 °C
CNc1ccc2c(c1)N1CCCN=C1S2 | 184 °C
CSc1ccc2c(c1)N=CC(SC)C2=O (stereo not drawn) | 90 to 92 °C
C#CCn1ncc(=O)[nH]c1=O | 148 °C
COc1cc(OCc2ccncc2)ccc1/C=C/c1cc(/C=C/c2cccc3cc[nH]c23)n[nH]1 | 201 to 206 °C
CN1CC(Cn2cncn2)CC2c3cccc4[nH]cc(c34)CC21 (stereo not drawn) | 245 to 253 °C
CN1C(=O)C(NC(=O)Nc2ccc(F)cc2)C(=O)N(C23CC4CC(CC(C4)C2)C3)c2ccccc21 (stereo not drawn) | 239 to 241 °C
CCOC(=O)c1cn(Cc2ccccc2)nc1OCc1cccc(OCc2nc(-c3ccccc3)oc2C)c1 | 95 to 96 °C
Cc1nc2c(O)c(CCC(=O)c3cccs3)c(C(=O)N(C)C)cc2n1C | 233 to 235 °C
CCOC1(c2ccccc2)c2cc(Cl)ccc2NC(=O)N1c1ccccc1 (stereo not drawn) | 209 to 211 °C
CC(=O)S[C@H]1CNC(=S)C1 | 91 to 93 °C
CCCCC1=NC2(CCCC2)C(=O)N1Cc1ccc(-c2ccccc2S(=O)(=O)Nc2noc(C)c2C)c(COCC)c1 | 148 °C
CC1(C)C(=O)NC(=O)c2c1ccc1nc(Nc3c(Cl)cccc3Cl)sc21 | > 300 °C
CCCCSc1cc2nc3ccccc3sc-2cc1=O | 133 °C
C=CC[C@@H]1CCc2cc(OC)ccc2[C@H]1O (relative stereo) | 63 to 65 °C
O=C(CCl)Nc1cscn1 | 115 to 119 °C
CC(C(=O)O)c1ccc2cc(O)ccc2c1 (stereo not drawn) | 186 to 188 °C
CN(C)CCC1CN(C)C(=S)c2cc([N+](=O)[O-])ccc2O1 (stereo not drawn) | 104 to 109 °C
CCn1ncnc1COc1nn2c(-c3ccccc3F)nncc2c1-c1ccccc1F | 164 °C
O=C1NCCc2cc(I)ccc21 | > 300 °C

Now from value to compound:

melting point | Compound
178 to 180 °C | CCOC(=O)Cc1ccc(NC(=O)C(COc2ccccc2)NS(=O)(=O)c2ccc(I)cc2)cc1 (racemic)
114 to 115 °C | CCC(CC)Nc1c([N+](=O)[O-])cc(CC=NO)c(C(C)C)c1[N+](=O)[O-]
167 to 169 °C | O=C(Nc1ccc([N+](=O)[O-])c(C(F)(F)F)c1)c1ccccc1SSc1ccccc1C(=O)Nc1ccc([N+](=O)[O-])c(C(F)(F)F)c1
188 to 190 °C | O=C(Nc1ccc(Cc2nnn[nH]2)cc1)C(F)(F)C(F)(F)C(F)(F)C(F)(F)C(F)(F)C(F)(F)C(F)(F)C(F)F
80 to 81 °C | N#Cc1ccc(N2CCOCC2)cc1
227 to 229 °C | O=C1NC(Cc2ccc(OCc3ccccc3)cn2)C(=O)NC1Cc1ccc(Cl)cc1 (stereo not drawn)
86 to 88 °C | Nc1cccc(NC(=O)C(F)(F)C(F)(F)F)c1
94 to 95 °C | CCCCCCCCCCCCCCCc1ccc(CO)c(O)c1
215 to 220 °C | CC1c2cc(O)ccc2-c2c1cc1cc(O)ccc1c2Cl (stereo not drawn)
234 °C | CCCC1=C([N+](=O)[O-])C(c2cccc3c2OCCC3)c2c[nH]nc2N1 (stereo not drawn)
175 to 176 °C | O=c1ccn(-c2ccc(OC(F)F)cc2)nc1-c1ccnn1-c1ccccc1
190 to 192 °C | O=C(Nc1c(C(O)(C(F)(F)F)C(F)(F)F)ccc2ccccc12)c1ccccc1
116 to 118 °C | CCn1ncc(C(=O)c2ccc(S(C)(=O)=O)c(COC)c2C)c1O
178 to 179 °C | COc1cc2nc(Cl)nc(N3CCN(C(=O)Nc4ccc(Oc5ccccc5)cc4)CC3)c2cc1OC
107 to 108 °C | O=C(CCCN1CCC(c2ccccc2)(c2ccccc2)CC1)c1ccc(F)cc1
157 to 160 °C | COc1cc(OCC(=O)N[C@@H]2CCN(Cc3ccccc3)C2)ccc1C=NNC(=O)c1ccc(O)c(N)c1
298 to 299 °C | NC(=O)c1cc(Br)ccc1Nc1ccncc1
194 °C | CC1CCN(c2c(-c3c(F)cc(F)cc3F)c(Cl)nc3nc(S)nn23)CC1
158 to 161 °C | CC12CC3(C)CC(CO)(C1)CC(CO)(C2)C3
226 to 230 °C | Nc1cccc2c1=NC(=O)C=2c1ccccc1
107 to 109 °C | CC(C)N(Cc1ccccc1)CC(O)COc1cccc2[nH]cc(C=O)c12 (stereo not drawn)
214 to 219 °C | Cc1ccc2c(c1)c(=O)c1c(cnn1C)n2CC#N
> 300 °C | O=C(Nc1nc(-c2ccco2)c(C(=O)c2ccncn2)s1)c1ccncc1

melting point | Compound
168 to 169 °C | CCOc1ccc(C2=NN(c3ccc(C(=O)N4CCN(c5nc(-c6ccccc6)ns5)CC4)cc3)C(=O)[C@@H]3CC=CC[C@H]23)cc1OCC
287 to 289 °C | Cc1cc(NC2CCCCC2)c2[nH]ncc2n1
270 to 271 °C | CCOC(=O)CCCCCOc1cc2ccc(-c3ccc(C(=O)O)cc3)cc2cc1C12CC3CC(CC(C3)C1)C2
135 to 138 °C | COCCOCc1c(CN(C)CC(O)c2cccc(OC)c2)sc2c(=O)c(C(=O)NCc3ccc(Cl)cc3)cn(C)c12 (stereo not drawn)
89 to 91 °C | COC(=O)c1cccc(-c2ncc(OCCN3CCOCC3)cn2)c1
208 to 210 °C | CN(C(=O)OC(C)(C)C)C1CC=C(c2c[nH]c3cc([N+](=O)[O-])ccc23)CC1 (stereo not drawn)
73 °C | COC(=O)CCCCc1cc2nc(Cl)ccc2n1S(=O)(=O)c1ccccc1
308 °C | N#Cc1c(N2CCN(C(=O)c3cccs3)CC2)c2cscc2n(CC(=O)c2ccccc2)c1=O
96 to 105 °C | CCOC(=O)C1CCN(Cc2c[nH]c3cccc(F)c23)CC1
154 to 157 °C | C[C@@H]1[C@@H](NS(=O)(=O)c2ccc(F)cc2)CN1C(c1ccc(Cl)cc1)c1ccc(Cl)cc1
104 to 108 °C | O=c1[nH]c(NCCCOc2cccc(CN3CCCCC3)c2)ncc1CCCc1ccccc1
169 to 171 °C | CNC(=O)C(CCO)C1(C)OCCc2c1[nH]c1ccccc21 (stereo not drawn)
289 to 290 °C | COc1cc(Cc2cnc(N)nc2N)cc2c(C)cc(C)nc12
82 °C | CN1CCC(c2c(O)cc(O)c3c(=O)cc(Sc4ccccc4)oc23)C(O)C1 (stereo not drawn)
172 to 173 °C | C[C@@H](c1ccc(C(=O)N(C)NC(N)=S)cc1)[C@](O)(Cn1cncn1)c1ccc(F)cc1F
155 to 166 °C | Cn1c(-c2ccc(-c3ccccn3)cc2)c(C(=O)O)c(=O)n1-c1ccc(C#N)cc1
122 to 124 °C | O=c1c2cccnc2c(-c2cccc(Cl)c2)cn1CC1CCCC1
181 °C | CCCCC(CC)COc1cccc(N2C(C)=CC(=C=C3C(C#N)C(=C(C#N)C#N)OC3(C)C)C=C2C)c1 (stereo not drawn)
190 to 194 °C | Cc1nc(S(=O)(=O)n2ccc(/C=C/C(=O)NO)c2)cn1C
108 to 111 °C | Nc1nc(NC2CCCCC2)nc2c1ncn2C1C=CCCC1 (stereo not drawn)
120 to 122 °C | NC(=O)c1ccccc1N1CCc2cc(Br)ccc21
61 to 65 °C | CCOC1SCN(c2ccc(Cl)c(Cl)c2)C1=O (stereo not drawn)
156 to 158 °C | CN1C(=O)[C@@H](NC(=O)CCC2CCCCC2)C[C@@H](c2ccccc2)c2ccccc21 (relative stereo)
